Like-named read-outs stand apart in the source and are kept apart here.
Columns and labels:
[1] = Analysis of metabolites in hepatocytes; type: in vitro ADME, rat, dog, Cynomolgus macaque, human; conditions: 10 μM, hepatocytes of four species, 0, 60 and 90 minutes
Method: Studies were conducted by BioFocus (Saffron Walden, UK) to determine the metabolic fate of the compound of Example 2 following incubation with rat, dog, Cynomolgus macaque or human hepatocytes.
Sample replicates were pooled prior to analysis.
Potential metabolites were identified using time-of-flight (TOF) and triple quadruple (TQ) mass spectrometers.

d-U937 cells = experiment: (a) LPS-induced TNFα/IL-8 release in d-U937 cells; type: cell-based; conditions: Homo sapiens, dU937 cells
Method: U937 cells, a human monocytic cell line, are differentiated into macrophage-type cells by incubation with PMA (100 ng/mL) for 48 to 72 hr. Cells are pre-incubated with final concentrations of test compound for 2 hr and are then stimulated with LPS (0.1 μg/mL; from E. Coli: O111:B4, Sigma) for 4 hr. The supernatant is collected for determination of TNFα and IL-8 concentrations by sandwich ELISA (Duo-set, R&D systems). […] The relative 50% effective concentration (REC50) is determined from the resultant concentration-response curve. The inhibition of IL-8 production is calculated at each concentration of test compound by comparison with vehicle control.

CYP2C9 = CYP2C9 (Homo sapiens (Human), UniProt P11712); experiment: CYP450 time-dependent inhibition, CYP2C9; type: in vitro ADME
Method: (§1) CYP450 time-dependent inhibition (TDI) assays were performed with test compound at six test concentrations, 0.062 μM to 15 μM (n=2). The test compounds was pre-incubated for 30 minutes with pooled human hepatic microsomes in 0.1 M Tris buffer, pH 7.4, at 37° C. in the presence of cofactor NADPH. A parallel series of incubations (n=2) were prepared with no pre-incubation. Probe substrates were then added (with additional cofactor) and further incubated for the times specified. Concentrations of probe substrates used in the incubations have been optimised to maintain first order reaction conditions.
(§2) Reactions were terminated with acetonitrile containing analytical internal standard (carbamazepine), samples then centrifuged to remove microsomal protein and analysed using optimised LC/MS-MS conditions. The MS data were normalised to internal standard and compared to the appropriate solvent controls to determine the amount of metabolite formed from the probe substrate relative to the “uninhibited” controls. The results are quoted as % inhibition.
(§3) Variation in probe turnover between plate wells means that inhibition values recorded below 10-15% may not be significant.

[2] = system: 71 receptors and 26 enzymes; experiment: Cerep Diversity Profile; type: binding; conditions: 300 nM; any of 71 receptors and 26 enzymes
[3] = Pharmacokinetics and colon distribution in mice; type: in vivo, male C57BL/6 mice; conditions: male, 5 mg/kg p.o.; for concentration at 1 h / concentration at 2 h / concentration at 4 h / concentration at 6 h / concentration at 8 h / concentration at 12 h / concentration at 24 h: po, mouse
Method: Blood samples (approximately 60 μL) were collected from retro orbital plexus such that the samples were obtained at 1, 2, 4, 6, 8, 12 and 24 hr. The blood samples were collected from a set of three mice at each time point in labelled micro centrifuge tube containing K2EDTA as anticoagulant. Plasma samples were separated by centrifugation at 4000 rpm for 10 min of whole blood and stored below −70° C. until bioanalysis. After collection of blood sample, animals were humanely euthanized by carbon dioxide asphyxiation to collect total colon tissues. The colons were flushed with cold phosphate buffer saline (pH 7.4) to remove contents. The total colon tissues were homogenized with cold phosphate buffer saline (pH 7.4) of twice the weight of colon tissue and stored below −70° C. Total volume was three times the total colon tissue weights. All samples were processed for analysis by protein precipitation using acetonitrile and analyzed with developed LC-MS/MS method (LLOQ: 2.02 ng/mL in plasma and 1.01 ng/mL in colon tissue). Pharmacokinetic parameters were calculated using the non-compartmental analysis tool of Phoenix WinNonlin® software (version 6.3).

CYP3A4 = CYP3A4 (Homo sapiens (Human), UniProt P08684); experiment: CYP450 time-dependent inhibition, CYP3A4; type: in vitro ADME
Method: as §1, §2, §3

PBMCs = experiment: (c) IL-2 and IFN gamma release in CD3/CD28 stimulated PBMC cells; type: cell-based; conditions: Homo sapiens, read-out: IC50 for Inhibition of Cytokine Release, IFNγ
Method: PBMCs from healthy subjects are separated from whole blood using a density gradient (Lymphoprep, Axis-Shield Healthcare). Cells are added to a 96 well plate pre-coated with a mixture of CD3/CD28 monoclonal antibodies (0.3 ug/ml eBioscience and 3 ug/ml BD Pharmingen respectively). Compound at the desired concentration is then added to the wells and the plate left for 3 days under normal tissue culture conditions. […] The IC50 is determined from the dose response curve.

primary macrophages = experiment: (e) LPS-induced cytokine release in primary macrophages; type: cell-based; conditions: Homo sapiens, Primary macrophage, assay (e)
Method: PBMCs from healthy subjects are separated from whole blood using a density gradient (Lymphoprep, Axis-Shield Healthcare). Cells are incubated for 2 hrs and non-adherent cells removed by washing. To differentiate the cells to macrophages the cells are incubated with 5 ng/ml of GM-CSF (Peprotech) for 7 days under normal tissue culture conditions. Compounds are then added to the cells at the desired concentration for a 2 hour pre-treatment before stimulation with 10 ng/ml LPS for 24 hours. […] The IC50 is determined from the dose response curve.

[4] = C57BL/6, colon, read-out: Mean concentration, Colon
[5] = C57BL/6, plasma, read-out: Mean concentration, Plasma
[6] = C57BL/6, po, Mouse, Total colon

Sequence of CYP3A4 (P08684 whole entry): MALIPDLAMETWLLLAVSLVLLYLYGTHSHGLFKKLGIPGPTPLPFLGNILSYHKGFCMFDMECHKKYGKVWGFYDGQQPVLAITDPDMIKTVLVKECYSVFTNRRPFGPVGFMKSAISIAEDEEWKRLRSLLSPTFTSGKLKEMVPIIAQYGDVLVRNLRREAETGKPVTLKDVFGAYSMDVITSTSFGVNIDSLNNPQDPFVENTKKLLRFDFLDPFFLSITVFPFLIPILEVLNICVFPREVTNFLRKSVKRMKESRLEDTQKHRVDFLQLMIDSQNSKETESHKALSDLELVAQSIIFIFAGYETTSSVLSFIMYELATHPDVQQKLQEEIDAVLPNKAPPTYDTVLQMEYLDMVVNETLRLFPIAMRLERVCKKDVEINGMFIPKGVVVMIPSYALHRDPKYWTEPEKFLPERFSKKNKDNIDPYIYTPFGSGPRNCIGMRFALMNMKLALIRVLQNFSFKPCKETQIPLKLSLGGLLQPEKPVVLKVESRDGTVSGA
Sequence of CYP2C9 (P11712 whole entry): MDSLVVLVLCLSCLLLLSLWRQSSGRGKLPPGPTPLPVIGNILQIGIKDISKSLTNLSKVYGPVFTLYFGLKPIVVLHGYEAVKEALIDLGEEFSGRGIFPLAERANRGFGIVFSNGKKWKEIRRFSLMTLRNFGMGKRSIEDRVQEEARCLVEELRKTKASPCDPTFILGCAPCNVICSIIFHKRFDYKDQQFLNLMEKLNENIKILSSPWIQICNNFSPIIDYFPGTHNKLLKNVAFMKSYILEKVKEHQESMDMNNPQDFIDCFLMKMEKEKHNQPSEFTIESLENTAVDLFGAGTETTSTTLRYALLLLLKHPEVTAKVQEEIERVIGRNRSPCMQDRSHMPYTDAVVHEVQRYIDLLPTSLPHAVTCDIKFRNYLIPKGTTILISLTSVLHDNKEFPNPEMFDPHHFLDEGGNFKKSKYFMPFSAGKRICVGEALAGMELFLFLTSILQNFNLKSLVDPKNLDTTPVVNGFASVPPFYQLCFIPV

- total metabolites identified in all studies [1]: nine
- IC50 (d-U937 cells; read-out: IC50 for Inhibition of Cytokine Release, IL-8): 0.5 nM
- IC50 (d-U937 cells; read-out: IC50 for Inhibition of Cytokine Release, TNFα): 0.5 nM
- IC50 (CYP2C9; CYP2C9, 0 min preincubation): > 15000 nM
- IC50 (CYP2C9; CYP2C9, 30 min preincubation): > 15000 nM
- inhibition at 0 min, 15 µM (CYP2C9; human, pooled human liver microsomes, pH 7.4, CYP2C9, 0 min preincubation, 15 μM, read-out: 15 μM % Inh): 35%
- inhibition at 30 min, 15 µM (CYP2C9; human, pooled human liver microsomes, pH 7.4, CYP2C9, 30 min preincubation, 15 μM, read-out: 15 μM % Inh): 37%
- inhibition of the control specific binding in the receptor binding assays or enzyme assays [2]: less than 25%
- concentration at 1 h [3, 4]: 884 ng/g
- concentration at 2 h [3, 4]: 2810 ng/g
- concentration at 4 h [3, 4]: 4240 ng/g
- concentration at 6 h [3, 4]: 1400 ng/g
- concentration at 8 h [3, 4]: 13700 ng/g
- concentration at 12 h [3, 4]: 7490 ng/g
- concentration at 24 h [3, 4]: 31.6 ng/g
- concentration at 1 h [3, 5]: 11.7 ng/mL
- concentration at 2 h [3, 5]: 8.5 ng/mL
- concentration at 4 h [3, 5]: 5.1 ng/mL
- concentration at 6 h [3, 5]: 4.55 ng/mL
- concentration at 8 h [3, 5]: 5.1 ng/mL
- concentration at 12 h [3, 5]: 0 ng/mL
- concentration at 24 h [3, 5]: 0 ng/mL
- AUC(0-t) ([3]; C57BL/6, po, Mouse, Plasma): 0.049 µg·h/mL
- Cmax ([3]; C57BL/6, po, Mouse, Plasma): 12 ng/mL
- Tmax ([3]; C57BL/6, po, Mouse, Plasma): 1 h
- AUC(0-inf) [3, 6]: 118 µg·h/mL
- AUC(0-t) [3, 6]: 117 µg·h/mL
- Cmax [3, 6]: 13700 ng/mL
- Tmax [3, 6]: 8 h
- IC50 (CYP3A4; CYP3A4, 0 min preincubation): > 15000 nM
- IC50 (CYP3A4; CYP3A4, 30 min preincubation): 7700 nM
- inhibition at 0 min, 15 µM (CYP3A4; human, pooled human liver microsomes, pH 7.4, CYP3A4, 0 min preincubation, 15 μM, read-out: 15 μM % Inh): 2%
- inhibition at 30 min, 15 µM (CYP3A4; human, pooled human liver microsomes, pH 7.4, CYP3A4, 30 min preincubation, 15 μM, read-out: 15 μM % Inh): 52%
- IC50 (primary macrophages; read-out: IC50 for inhibition of release of IL-6): 2.8 nM
- IC50 (primary macrophages; read-out: IC50 for inhibition of release of IL-8): 2.1 nM
Compound: C#Cc1cc(Nc2nccc(Oc3ccc(NC(=O)Nc4cc(C(C)(C)C)nn4-c4ccc(C)cc4)c4ccccc34)n2)cc(C(=O)NCCOCCOCCOC)c1 [Example 2, 3-((4-((4-(3-(3-(tert-Butyl)-1-(p-tolyl)-1H-pyrazol-5-yl)ureido)naphthalen-1-yl)oxy)pyrimidin-2-yl)amino)-5-ethynyl-N-(2-(2-(2-methoxyethoxy)ethoxy)ethyl)-benzamide]
- IC50 (PBMCs): 2.5 nM

Source: patent US10301288B2, “Kinase inhibitors” (Topivert Pharma Limited, priority 2013, dated 2019)
